Measurements from patent US20080227823A1, “AMIDE DERIVATIVES AS CALCIUM CHANNEL BLOCKERS” (priority 2007, published 2008).

Columns and labels:
[1] = biological target: T1, human α1I T-type channels (Homo sapiens, UniProt Q9P0X4); test: T-type calcium channel block, whole cell patch clamp in HEK cells; type: cell-based; details: mainly non-inactivated protocol
T1 construct: expressed in transfected cells; host or cells: HEK 293
Protocol: (§1) T-type calcium channel blocking activity was assayed in human embryonic kidney cells, HEK 293, stably transfected with the T-type calcium channel subunits. Briefly, cells were cultured in Dulbecco's modified eagle medium (DMEM) supplemented with 10% fetal bovine serum, 200 U/ml penicillin and 0.2 mg/ml streptomycin at 37° C. with 5% CO2. At 85% confluency cells were split with 0.25% trypsin/1 mM EDTA and plated at 10% confluency on glass coverslips. At 12 hours the medium was replaced and the cells stably transfected using a standard calcium phosphate protocol and the appropriate calcium channel cDNA's. Fresh DMEM was supplied and the cells transferred to 28° C./5% CO2. Cells were incubated for 1 to 2 days prior to whole cell recording.
(§2) Standard patch-clamp techniques were employed to identify blockers of T-type currents. Briefly, previously described HEK cell lines stably expressing human α1G, α1H and α1I T-type channels were used for all the recordings (passage #: 4-20, 37° C., 5% CO2). Whole cell patch clamp experiments were performed using an Axopatch 200B amplifier (Axon Instruments, Burlingame, Calif.) linked to a personal computer equipped with pCLAMP software. Data were analyzed using Clampfit (Axon Instruments) and SigmaPlot 4.0 (Jandel Scientific). To obtain T-type currents, plastic dishes containing semi-confluent cells were positioned on the stage of a ZEISS AXIOVERT S100 microscope after replacing the culture medium with external solution (see below). Whole-cell patches were obtained using pipettes (borosilicate glass with filament, O.D.: 1.5 mm, I.D.: 0.86 mm, 10 cm length), fabricated on a SUTTER P-97 puller with resistance values of ˜5 MΩ (see below for internal solution).
(§3) T-type currents were reliably obtained by using two voltage protocols: • (1) “non-inactivating”, and • (2) “inactivation”
(§4) In the non-inactivating protocol, the holding potential is set at −110 mV and with a pre-pulse at −100 mV for 1 second prior to the test pulse at −40 mV for 50 ms. In the inactivation protocol, the pre-pulse is at approximately −85 mV for 1 second, which inactivates about 15% of the T-type channels.
(§5) Test compounds were dissolved in external solution, 0.1-0.01% DMSO. After 10 min rest, they were applied by gravity close to the cell using a WPI microfil tubing. The “non-inactivated” pre-pulse was used to examine the resting block of a compound. The “inactivated” protocol was employed to study voltage-dependent block. However, the initial data shown below were mainly obtained using the non-inactivated protocol only. Kd values are shown for various compounds of the invention in Table 4 measured at 1 μM for the drug of interest except for compound 18 which was measured at 200 nM.

[2] = biological target: T2, human α1G T-type channels (Homo sapiens, UniProt O43497); test: as above; type: cell-based; details: mainly non-inactivated protocol
T2 construct: expressed in transfected cells; host or cells: HEK 293
Protocol: as §1, §2, §3, §4, §5

[3] = biological target: T3, human α1H T-type channels (Homo sapiens, UniProt O95180); test: as above; type: cell-based; details: mainly non-inactivated protocol
T3 construct: expressed in transfected cells; host or cells: HEK 293
Protocol: as §1, §2, §3, §4, §5

[4] = spinal nerve ligation model of neuropathic pain in rats; cited from earlier work
[5] = tested on: T-type over L-type channels; details: cited from earlier work

T1 sequence (Q9P0X4 whole entry): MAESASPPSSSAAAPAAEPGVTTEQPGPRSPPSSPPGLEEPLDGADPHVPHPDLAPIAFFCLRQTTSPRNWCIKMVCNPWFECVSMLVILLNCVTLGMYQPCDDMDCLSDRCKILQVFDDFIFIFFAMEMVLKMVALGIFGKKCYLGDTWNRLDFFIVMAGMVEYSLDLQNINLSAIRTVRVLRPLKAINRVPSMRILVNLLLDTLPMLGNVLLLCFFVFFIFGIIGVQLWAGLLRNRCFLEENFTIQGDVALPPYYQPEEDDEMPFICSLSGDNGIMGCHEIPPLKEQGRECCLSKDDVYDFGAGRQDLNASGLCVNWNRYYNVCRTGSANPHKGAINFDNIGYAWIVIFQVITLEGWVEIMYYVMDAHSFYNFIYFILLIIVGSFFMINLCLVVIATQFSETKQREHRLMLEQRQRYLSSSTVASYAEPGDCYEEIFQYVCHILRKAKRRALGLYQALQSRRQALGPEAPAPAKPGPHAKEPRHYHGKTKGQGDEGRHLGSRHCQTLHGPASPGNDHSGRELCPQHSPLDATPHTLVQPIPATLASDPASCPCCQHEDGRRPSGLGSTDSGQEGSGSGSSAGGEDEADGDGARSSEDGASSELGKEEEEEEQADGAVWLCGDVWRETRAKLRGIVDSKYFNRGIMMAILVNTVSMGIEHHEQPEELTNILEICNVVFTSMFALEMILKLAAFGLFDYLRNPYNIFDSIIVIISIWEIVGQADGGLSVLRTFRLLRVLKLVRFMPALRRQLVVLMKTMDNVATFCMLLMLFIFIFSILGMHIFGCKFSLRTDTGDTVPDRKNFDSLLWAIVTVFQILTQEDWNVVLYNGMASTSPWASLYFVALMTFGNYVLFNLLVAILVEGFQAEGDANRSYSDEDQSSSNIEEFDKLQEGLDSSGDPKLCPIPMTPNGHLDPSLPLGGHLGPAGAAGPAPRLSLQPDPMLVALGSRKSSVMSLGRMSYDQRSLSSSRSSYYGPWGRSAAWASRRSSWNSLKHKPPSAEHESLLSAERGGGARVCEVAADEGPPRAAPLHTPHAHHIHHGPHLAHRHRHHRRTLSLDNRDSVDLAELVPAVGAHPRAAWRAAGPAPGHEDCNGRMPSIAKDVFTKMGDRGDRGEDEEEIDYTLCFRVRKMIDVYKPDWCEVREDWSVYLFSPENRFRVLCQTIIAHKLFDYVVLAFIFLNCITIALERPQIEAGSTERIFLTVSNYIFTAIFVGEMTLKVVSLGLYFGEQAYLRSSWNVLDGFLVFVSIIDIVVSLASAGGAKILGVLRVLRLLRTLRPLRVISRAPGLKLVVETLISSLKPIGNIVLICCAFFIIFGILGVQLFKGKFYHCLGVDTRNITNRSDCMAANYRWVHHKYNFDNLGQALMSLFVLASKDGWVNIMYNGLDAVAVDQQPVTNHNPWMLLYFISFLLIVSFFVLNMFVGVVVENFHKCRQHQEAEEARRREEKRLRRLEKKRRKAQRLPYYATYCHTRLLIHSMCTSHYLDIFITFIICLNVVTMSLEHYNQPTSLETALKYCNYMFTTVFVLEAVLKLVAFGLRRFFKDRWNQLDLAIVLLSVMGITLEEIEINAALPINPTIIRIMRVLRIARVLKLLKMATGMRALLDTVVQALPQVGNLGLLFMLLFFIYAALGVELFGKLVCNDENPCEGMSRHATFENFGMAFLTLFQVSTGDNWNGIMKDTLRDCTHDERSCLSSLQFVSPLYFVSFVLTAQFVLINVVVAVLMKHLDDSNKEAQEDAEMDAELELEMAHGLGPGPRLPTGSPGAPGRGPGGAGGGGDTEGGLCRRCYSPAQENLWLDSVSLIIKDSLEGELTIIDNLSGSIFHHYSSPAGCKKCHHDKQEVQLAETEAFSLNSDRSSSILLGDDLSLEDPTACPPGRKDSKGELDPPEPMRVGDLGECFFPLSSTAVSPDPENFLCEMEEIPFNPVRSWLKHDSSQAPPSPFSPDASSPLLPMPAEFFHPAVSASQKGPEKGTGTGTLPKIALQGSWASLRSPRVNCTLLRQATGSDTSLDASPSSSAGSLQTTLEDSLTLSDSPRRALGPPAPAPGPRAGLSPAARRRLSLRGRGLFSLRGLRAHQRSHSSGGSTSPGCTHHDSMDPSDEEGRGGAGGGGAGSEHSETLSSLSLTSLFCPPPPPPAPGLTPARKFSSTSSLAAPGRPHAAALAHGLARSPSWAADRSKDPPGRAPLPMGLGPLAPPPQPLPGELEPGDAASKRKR
T2 sequence (O43497 whole entry): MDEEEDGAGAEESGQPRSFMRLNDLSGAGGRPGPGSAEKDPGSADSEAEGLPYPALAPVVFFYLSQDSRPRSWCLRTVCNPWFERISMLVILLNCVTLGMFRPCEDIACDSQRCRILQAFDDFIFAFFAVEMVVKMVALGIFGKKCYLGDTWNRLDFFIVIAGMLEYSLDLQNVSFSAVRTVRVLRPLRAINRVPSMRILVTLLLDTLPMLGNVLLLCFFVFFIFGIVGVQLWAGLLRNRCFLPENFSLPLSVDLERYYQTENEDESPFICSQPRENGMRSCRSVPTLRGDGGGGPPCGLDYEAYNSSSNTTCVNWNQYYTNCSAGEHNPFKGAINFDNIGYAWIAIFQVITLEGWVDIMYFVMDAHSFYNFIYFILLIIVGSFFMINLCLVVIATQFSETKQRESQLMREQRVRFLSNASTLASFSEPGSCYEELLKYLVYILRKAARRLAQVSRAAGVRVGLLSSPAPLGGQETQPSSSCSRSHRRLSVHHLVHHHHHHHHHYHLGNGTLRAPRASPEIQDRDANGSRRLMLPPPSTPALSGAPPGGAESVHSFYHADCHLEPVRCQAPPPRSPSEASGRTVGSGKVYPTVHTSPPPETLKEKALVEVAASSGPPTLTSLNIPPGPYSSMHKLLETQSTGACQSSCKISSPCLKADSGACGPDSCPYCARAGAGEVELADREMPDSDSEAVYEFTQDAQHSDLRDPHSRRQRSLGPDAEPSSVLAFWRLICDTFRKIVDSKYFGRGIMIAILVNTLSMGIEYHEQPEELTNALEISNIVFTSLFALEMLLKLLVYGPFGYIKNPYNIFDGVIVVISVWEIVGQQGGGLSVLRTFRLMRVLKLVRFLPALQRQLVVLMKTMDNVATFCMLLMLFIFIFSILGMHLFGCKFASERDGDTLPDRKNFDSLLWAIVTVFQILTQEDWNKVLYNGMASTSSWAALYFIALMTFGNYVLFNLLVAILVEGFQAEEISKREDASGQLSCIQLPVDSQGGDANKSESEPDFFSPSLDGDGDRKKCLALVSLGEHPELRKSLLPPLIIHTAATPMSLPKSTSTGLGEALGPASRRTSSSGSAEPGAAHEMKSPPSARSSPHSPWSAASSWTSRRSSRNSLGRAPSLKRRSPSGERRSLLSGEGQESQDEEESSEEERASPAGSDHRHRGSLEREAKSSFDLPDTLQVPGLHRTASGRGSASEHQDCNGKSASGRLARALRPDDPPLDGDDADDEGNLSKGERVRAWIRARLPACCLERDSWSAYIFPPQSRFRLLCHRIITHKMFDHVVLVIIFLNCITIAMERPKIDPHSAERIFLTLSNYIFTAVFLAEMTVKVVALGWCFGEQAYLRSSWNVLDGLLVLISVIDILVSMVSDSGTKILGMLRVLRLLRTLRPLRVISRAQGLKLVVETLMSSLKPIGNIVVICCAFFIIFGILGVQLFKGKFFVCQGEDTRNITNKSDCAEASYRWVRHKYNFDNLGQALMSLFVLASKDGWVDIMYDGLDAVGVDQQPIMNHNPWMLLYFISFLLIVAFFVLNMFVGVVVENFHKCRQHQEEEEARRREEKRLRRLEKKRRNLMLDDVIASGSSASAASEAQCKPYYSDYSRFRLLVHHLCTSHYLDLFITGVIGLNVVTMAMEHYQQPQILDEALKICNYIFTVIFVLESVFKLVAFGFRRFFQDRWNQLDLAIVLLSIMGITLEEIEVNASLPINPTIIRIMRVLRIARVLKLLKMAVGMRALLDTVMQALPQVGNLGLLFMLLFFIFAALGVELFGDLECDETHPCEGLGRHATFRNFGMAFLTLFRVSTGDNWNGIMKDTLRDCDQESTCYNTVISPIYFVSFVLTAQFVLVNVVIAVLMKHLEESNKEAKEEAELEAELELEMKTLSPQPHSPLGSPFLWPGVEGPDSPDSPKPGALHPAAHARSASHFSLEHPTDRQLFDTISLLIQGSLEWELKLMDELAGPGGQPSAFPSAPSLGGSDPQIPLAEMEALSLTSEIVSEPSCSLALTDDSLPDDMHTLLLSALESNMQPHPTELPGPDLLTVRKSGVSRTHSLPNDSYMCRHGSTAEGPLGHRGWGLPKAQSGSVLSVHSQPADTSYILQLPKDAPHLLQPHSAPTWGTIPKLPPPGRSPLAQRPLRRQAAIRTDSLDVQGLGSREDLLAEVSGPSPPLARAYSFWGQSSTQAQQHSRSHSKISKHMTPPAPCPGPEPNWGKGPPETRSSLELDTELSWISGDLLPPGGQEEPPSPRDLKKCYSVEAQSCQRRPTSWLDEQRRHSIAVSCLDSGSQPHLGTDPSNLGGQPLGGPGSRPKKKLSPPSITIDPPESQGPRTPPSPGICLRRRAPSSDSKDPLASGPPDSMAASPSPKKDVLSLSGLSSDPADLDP

SMILES | Kd ([1]; measured at 1 μM drug) | Kd ([2]; measured at 1 μM drug) | Kd ([3]; measured at 1 μM drug) | further results
O=C(/C=C/c1ccc(F)c(Br)c1)NC1(C(=O)NCCc2c[nH]c3ccc(F)cc23)CC1 [Compound 14, (E)-1-(3-(3-bromo-4-fluorophenyl)acrylamido)-N-(2-(5-fluoro-1H-indol-3-yl)ethyl)cyclopropanecarboxamide] | 460 nM | 290 nM | 12000 nM | –
O=C(/C=C/c1ccc(F)c(F)c1)NC1(C(=O)NCCc2c[nH]c3ccc(F)cc23)CCNCC1 [Compound 7, (E)-4-(3-(3,4-difluorophenyl)acrylamido)-N-(2-(5-fluoro-1H-indol-3-yl)ethyl)piperidine-4-carboxamide] | 110 nM | 130 nM | 137000 nM | –
NCC(=O)N1CCC(NC(=O)/C=C/c2ccc(F)c(Br)c2)(C(=O)NCCc2c[nH]c3ccc(F)cc23)CC1 [Compound 24, (E)-1-(2-aminoacetyl)-4-(3-(3-bromo-4-fluorophenyl)acrylamido)-N-(2-(5-fluoro-1H-indol-3-yl)ethyl)piperidine-4-carboxamide] | 440 nM | 180 nM | 1450 nM | –
O=C(/C=C/c1ccc(F)c(Br)c1)NC1(C(=O)NCCc2c[nH]c3ccc(F)cc23)CCN(C(=O)C(F)(F)F)CC1 [Compound 27, (E)-4-(3-(3-bromo-4-fluorophenyl)acrylamido)-N-(2-(5-fluoro-1H-indol-3-yl)ethyl)-1-(2,2,2-trifluoroacetyl) piperidine-4-carboxamide] | 210 nM | 150 nM | 840 nM | –
O=C(/C=C/c1ccc(F)cc1)NC1(C(=O)Nc2cc(C(F)(F)F)cc(C(F)(F)F)c2)CCNCC1 [Compound 32, (E)-N-(3,5-bis(trifluoromethyl)phenyl)-4-(3-(4-fluorophenyl)acrylamido)piperidine-4-carboxamide] | 50 nM | 50 nM | 420 nM | –
O=C(/C=C/c1ccc(F)c(Br)c1)NC1(C(=O)NCCc2c[nH]c3ccc(F)cc23)CCNCC1 [Compound 1] | 180 nM | 220 nM | 470 nM | –
COC(=O)N1CCC(NC(=O)/C=C/c2ccc(F)c(Br)c2)(C(=O)NCCc2c[nH]c3ccc(F)cc23)CC1 [Compound 23, (E)-methyl 4-(3-(3-bromo-4-fluorophenyl)acrylamido)-4-(2-(5-fluoro-1H-indol-3-yl)ethylcarbamoyl)piperidine-1-carboxylate] | 870 nM | 790 nM | – | –
O=C(/C=C\c1ccccc1)NC1(C(=O)Nc2cc(C(F)(F)F)cc(C(F)(F)F)c2)CCNCC1 [Compound 40, (Z)-N-(3,5-bis(trifluoromethyl)phenyl)-4-(3-phenylacrylamido)piperidine-4-carboxamide] | – | 130 nM | 2420 nM | –
O=C(/C=C/c1ccc(F)c(Br)c1)N[C@H](C(=O)NCCc1c[nH]c2ccc(F)cc12)c1ccccc1 [Compound 17, (S,E)-3-(3-bromo-4-fluorophenyl)-N-(2-(2-(5-fluoro-1H-indol-3-yl)ethylamino)-2-oxo-1-phenylethyl)acrylamide] | 170 nM | 100 nM | 940 nM | –
O=C(/C=C/c1ccc(F)c(Br)c1)NC1(C(=O)NCCc2c[nH]c3ccccc23)CCNCC1 [Compound 2, (E)-N-(2-(1H-indol-3-yl)ethyl)-4-(3-(3-bromo-4-fluorophenyl)acrylamido)piperidine-4-carboxamide] | 30 nM | 30 nM | 410 nM | –
CN1CCC(NC(=O)/C=C/c2ccc(F)c(Br)c2)(C(=O)NCCc2c[nH]c3ccc(F)cc23)CC1 [Compound 22] | 330 nM | 100 nM | 490 nM | –
CCC1(C)CC(=O)NC1=O (centres unmarked) [ethosuximide] | – | – | – | anti-hyperalgesic activity [4]: anti-hyperalgesic activity
O=C(/C=C/c1ccc(F)c(Br)c1)N[C@@H](C(=O)NCCc1c[nH]c2ccc(F)cc12)c1ccccc1 [Compound 18, (R,E)-3-(3-bromo-4-fluorophenyl)-N-(2-(2-(5-fluoro-1H-indol-3-yl)ethylamino)-2-oxo-1-phenylethyl)acrylamide] | – | – | – | Kd ([1]; measured at 200 nM drug): 380 nM; Kd ([2]; measured at 200 nM drug): 70 nM; Kd ([3]; measured at 200 nM drug): 690 nM
O=C(/C=C/c1ccc(F)c(Br)c1)NC1(C(=O)NCCc2c[nH]c3ccc(F)cc23)CCCC1 [Compound 13, (E)-1-(3-(3-bromo-4-fluorophenyl)acrylamido)-N-(2-(5-fluoro-1H-indol-3-yl)ethyl)cyclopentanecarboxamide] | 390 nM | 140 nM | 1790 nM | –
CC(C)(NC(=O)/C=C/c1ccc(F)c(Br)c1)C(=O)NCCc1c[nH]c2ccc(F)cc12 [Compound 15, (E)-3-(3-bromo-4-fluorophenyl)-N-(1-(2-(5-fluoro-1H-indol-3-yl)ethylamino)-2-methyl-1-oxopropan-2-yl)acrylamide] | 480 nM | 360 nM | – | –
O=C(/C=C/c1ccc(F)cc1)NC1(C(=O)Nc2cc(Cl)cc(Cl)c2)CCNCC1 [Compound 44, (E)-N-(3,5-dichlorophenyl)-4-(3-(4-fluorophenyl)acrylamido)piperidine-4-carboxamide] | – | 320 nM | 1610 nM | –
O=C(/C=C/c1ccc(F)c(Br)c1)NC1(C(=O)NCCc2c[nH]c3ccc(F)cc23)CCCCC1 [Compound 12, (E)-1-(3-(3-bromo-4-fluorophenyl)acrylamido)-N-(2-(5-fluoro-1H-indol-3-yl)ethyl)cyclohexanecarboxamide] | 280 nM | 120 nM | 1800 nM | –
COCC(=O)O[C@]1(CCN(C)CCCc2nc3ccccc3[nH]2)CCc2cc(F)ccc2[C@@H]1C(C)C [Mibefradil] | – | – | – | selective for T-type over L-type channels [5]: 10-30 fold; anti-hyperalgesic activity [4]: anti-hyperalgesic activity
